Measurements: patent US9408817B2, “Methods for detecting inflammatory bowel disease in a feline” (Hill's Pet Nutrition, Inc., priority 2005, dated 2016)

Experiments:
Assay type in all cases: cell-based
[1] = tested on: lymphocytes obtained from the blood of healthy cats and cats with IBD; test: in vitro lymphocyte proliferation assay (BrdU ELISA, PHA-stimulated); conditions: 40 h
Procedure: The study utilizes eleven healthy cats and eleven cats with IBD, The cats with IBD are diagnosed by an intestinal biopsy, and have a history of chronic diarrhea. For six weeks, all cats are fed a nutritionally adequate dry food indicated for gastrointestinal distress. Blood is drawn from all cats at four, five, and six weeks. Samples with equal amounts of lymphocytes are used in an in vitro lymphocyte proliferation assay.
More specifically, 4.5 ml blood is mixed with 4.5 ml HBSS (Hank's Balanced Salt Solution)+25 mM HEPES. 4 ml of Ficoll-Paque Plus (Amersham) are slowly injected under the diluted blood. The mixture is centrifuged for twenty minutes at 500 g at 25° C. The upper layer is discarded. The lymphocytes are transferred into a clean tube, resuspended in 6 ml of HBSS+25 mM HEPES, and then centrifuged for ten minutes at 200 g at 25° C. The supernatant is discarded, and the lymphocytes are washed with 6 ml of HBSS. This centrifugation and wash step is repeated two more times. The washed lymphocytes are then resuspended in 5 ml of AIM medium (Invitrogen). Samples with 200,000 lymphocytes in 100 μl of AIM medium are used for the lymphocyte proliferation assay.
The lymphocyte proliferation assay is performed utilizing Amersham's Biotrak cell proliferation ELISA system, version 2. Lymphocyte samples are incubated in a 96-well plate with 7 μg/ml PHA (phytohemagglutinin) in the absence or presence of 12.5 μM and 25 μM DHA or EPA in a 37° C. incubator with 5% CO2 and 90% humidity for forty hours. After that, 20 μl of 100 μM BrdU is added, and the samples are incubated for two hours at 37° C. The plates are then removed from the incubator and centrifuged at 300 g for ten minutes at 25° C. The medium is removed by tapping and blotting, and the cells are dried in a chemical fume hood for at least fifteen minutes. 200 μl of fixative is added to every well and the plate is incubated for thirty minutes at room temperature. The cell fixative is removed by tapping and blotting. 200 μl of blocking buffer are added to every well, and the plate is incubated for thirty minutes at room temperature. The blocking buffer is removed by tapping and blotting, and 100 μl of anti-BrdU working solution is added to each well and incubated for ninety minutes at room temperature. The anti-BrdU solution is removed by tapping and blotting, and each well is rinsed three times with 300 μl washing solution. 100 μl 3.3′,5,5′-tetamethylbenzidine is added to each well and incubated for ten minutes or until color intensity is achieved. 25 μl 1M sulfuric acid is added to stop the reaction, and the plate is read on a fusion microplate reader (PerkinElmer) within five minutes.

[2] = tested on: IL-1α; test: cytokine expression by RT-PCR in PHA-stimulated lymphocytes: IL-1α; conditions: PHA + 12.5 μM, healthy cats (no PHA) = 1
Procedure: (§1) Lymphocytes are obtained from the blood of healthy cats and cats with IBD as described in Example 1 and then treated with DHA or EPA also as described in Example 1. Ribonucleic acid (RNA) is extracted from all samples, and real time polymerase chain reaction (RT-PCR) is performed to examine the changes in the level of expression of the following cytokines: interleukins 1α, 1β, 2, 6, and 10 (IL-1α, IL-1β, IL-2, IL-6, and IL-10), macrophage inhibitory factor (MIF), interferon gamma (IFN-γ), and transforming growth factor beta (TGF-β).

[3] = tested on: IL-6; test: cytokine expression by RT-PCR in PHA-stimulated lymphocytes: IL-6; conditions: PHA + 12.5 μM, healthy cats (no PHA) = 1
Procedure: as §1

[4] = tested on: MIF; test: cytokine expression by RT-PCR in PHA-stimulated lymphocytes: MIF; conditions: PHA + 12.5 μM, healthy cats (no PHA) = 1
Procedure: as §1

[5] = tested on: IL-2; test: cytokine expression by RT-PCR in PHA-stimulated lymphocytes: IL-2; conditions: PHA + 12.5 μM, healthy cats (no PHA) = 1
Procedure: as §1

[6] = tested on: IFN-γ; test: cytokine expression by RT-PCR in PHA-stimulated lymphocytes: IFN-γ; conditions: PHA + 12.5 μM, healthy cats (no PHA) = 1
Procedure: as §1

[7] = tested on: IL-1β; test: cytokine expression by RT-PCR in PHA-stimulated lymphocytes: IL-1β; conditions: PHA + 12.5 μM, healthy cats (no PHA) = 1
Procedure: as §1

[8] = tested on: IL-10; test: cytokine expression by RT-PCR in PHA-stimulated lymphocytes: IL-10; conditions: PHA + 12.5 μM, healthy cats (no PHA) = 1
Procedure: as §1

[9] = tested on: TGF-β; test: cytokine expression by RT-PCR in PHA-stimulated lymphocytes: TGF-β; conditions: PHA + 12.5 μM, healthy cats (no PHA) = 1
Procedure: as §1

[10] = lymphocytes of cats with IBD, 7 μg/ml PHA + 12.5 μM fatty acid
[11] = lymphocytes of cats with IBD, 7 μg/ml PHA + 25 μM fatty acid
[12] = lymphocytes of healthy cats, 7 μg/ml PHA + 12.5 μM fatty acid
[13] = lymphocytes of healthy cats, 7 μg/ml PHA + 25 μM fatty acid

| Compound | Lymphocyte Proliferation [1, 10] | Lymphocyte Proliferation [1, 11] | Lymphocyte Proliferation [1, 12] | Lymphocyte Proliferation [1, 13] | IL-1α expression ([2]; cats with IBD) | IL-1α expression ([2]; healthy cats) | IL-6 expression ([3]; cats with IBD) | IL-6 expression ([3]; healthy cats) | MIF expression ([4]; cats with IBD) | MIF expression ([4]; healthy cats) | IL-2 expression ([5]; cats with IBD) | IL-2 expression ([5]; healthy cats) | IFN-γ expression ([6]; cats with IBD) | IFN-γ expression ([6]; healthy cats) | IL-1β expression ([7]; cats with IBD) | IL-1β expression ([7]; healthy cats) | IL-10 expression ([8]; cats with IBD) | IL-10 expression ([8]; healthy cats) | TGF-β expression ([9]; cats with IBD) | TGF-β expression ([9]; healthy cats) |
| --- | --- | --- | --- | --- | --- | --- | --- | --- | --- | --- | --- | --- | --- | --- | --- | --- | --- | --- | --- | --- |
| CC/C=C\C/C=C\C/C=C\C/C=C\C/C=C\CCCC(=O)O [EPA, eicosapentaenoic acid] | 0.62 ± 0.27 | 0.63 ± 0.29 | 0.38 ± 0.23 | 0.37 ± 0.23 | 0.46 | 1.05 | 6.45 | 10.6 | 4.45 | 14.05 | 1.89 | 59.4 | 4.45 | 130.9 | 1.34 | 1.17 | 0.34 | 1.2 | 2.4 | 4.7 |
| CC/C=C\C/C=C\C/C=C\C/C=C\C/C=C\C/C=C\CCC(=O)O [DHA, docosahexaenoic acid] | 0.49 ± 0.15 | 0.45 ± 0.18 | 0.28 ± 0.19 | 0.25 ± 0.17 | 0.57 | 0.86 | 13.9 | 5.75 | 6.55 | 16.9 | 3 | 21.05 | 4.9 | 37.6 | 1.85 | 0.87 | 0.45 | 0.95 | 1.45 | 3.55 |
